This is an account of results in ChEMBL document CHEMBL3769364, “Synthesis and structure-activity relationship studies of novel 3,9-substituted α-carboline derivatives with high cytotoxic activity against colorectal cancer cells” (Eur J Med Chem, 2016).

pIC50: −log10 of the molar value.

Test [1] in a line: Cytotoxicity against human Hep3B cells after 48 hrs by MTT assay. For orientation: Tetrazolium assays rely on reduction of a dye to a coloured formazan, in cell work by metabolically active cells.
Test [2] concerns Detroit 551. Description: Cytotoxicity against human Detroit 551 cells after 48 hrs by MTT assay. The following applies: Detroit 551, 48 h.
The nature of test [3]: Cytotoxicity against human COLO205 cells after 48 hrs by MTT assay. The following applies: COLO 205, 48 h.
The nature of test [4]: Cytotoxicity against human H460 cells after 48 hrs by MTT assay. Conditions: NCI-H460, 48 h.
Test [5] can be described thus: Cytotoxicity against human HL60 cells after 48 hrs by MTT assay. The following applies: HL-60, 48 h.
For test [6], the system named is A498. The experiment in a line: Cytotoxicity against human A498 cells after 48 hrs by MTT assay. Conditions: A498, 48 h.

The term pIC50 denotes the IC50 on a negative log10 scale, so that one unit is a factor of ten. A high value points to a small IC50. `COC(=O)c1cnc2c(c1)c1ccccc1n2Cc1ccc2c(c1)OCO2`: the pIC50 in test [1], in test [2], in test [3], in test [4], in test [5] and in test [6] was less than 4.30 in each case.
Regarding `COC(=O)c1cnc2c(c1)c1ccccc1n2Cc1cccs1`, the pIC50 in test [1], in test [2], in test [3], in test [4], in test [5] and in test [6] was less than 4.30 in each case.
Consider `COC(=O)c1cnc2c(c1)c1ccccc1n2Cc1ccccc1F`, for which the pIC50 in test [1], in test [2], in test [3], in test [4], in test [5] and in test [6] was less than 4.30 in each case.
As for `COC(=O)c1cnc2c(c1)c1ccccc1n2Cc1ccc(OC)cc1`, the pIC50 in test [1], in test [3], in test [4], in test [5] and in test [6] was less than 4.30 throughout.
With `COc1cc(Cn2c3ccccc3c3cc(C(=O)O)cnc32)cc(OC)c1OC`, the pIC50 in test [2] and in test [5] was less than 4.30 in each case.
Take `OCc1cnc2c(c1)c1ccccc1n2Cc1ccco1`: the pIC50 in test [1], in test [2], in test [3], in test [4], in test [5] and in test [6] was less than 4.30 in each case.
In the case of `COC(=O)c1cnc2c(c1)c1ccccc1n2Cc1ccco1`, the pIC50 in test [1], in test [2], in test [3], in test [4], in test [5] and in test [6] was less than 4.30 each time.
On to `OCc1cnc2c(c1)c1ccccc1n2Cc1c(F)cccc1F`, for which the pIC50 in test [1], in test [3], in test [4] and in test [6] was less than 4.30 throughout.
In the case of `OCc1cnc2c(c1)c1ccccc1n2Cc1ccsc1`, the pIC50 in test [2], in test [3], in test [4], in test [5] and in test [6] was less than 4.30 throughout.
Take `COC(=O)c1cnc2c(c1)c1ccccc1n2Cc1ccc(F)cc1F`: the pIC50 in test [1], in test [2], in test [3], in test [4], in test [5] and in test [6] was less than 4.30 throughout.
Take `COC(=O)c1cnc2c(c1)c1ccccc1n2Cc1cccc(Cl)c1Cl`: the pIC50 in test [1], in test [2], in test [3], in test [4] and in test [6] was less than 4.30 throughout.
Turning to `OCc1cnc2c(c1)c1ccccc1n2Cc1ccc2c(c1)OCO2`, the pIC50 in test [1], in test [3], in test [4] and in test [6] was less than 4.30 each time.
Consider `O=C(O)c1cnc2c(c1)c1ccccc1n2Cc1ccccc1`, for which the pIC50 was less than 4.00 in test [1]; less than 4.00 in test [2]; less than 4.30 in test [3]; less than 4.00 in test [4]; less than 4.00 in test [5]; less than 4.30 in test [6].
`COc1cc(Cn2c3ccccc3c3cc(C(=O)O)cnc32)cc(OC)c1`: the pIC50 in test [2] was less than 4.00; in test [3] it was less than 4.30; in test [4], less than 4.30.
For the compound `COC(=O)c1cnc2c(c1)c1ccccc1n2Cc1cccc(OC)c1`, the pIC50 in test [2], in test [3] and in test [6] was less than 4.30 each time.
For the compound `COC(=O)c1cnc2c(c1)c1ccccc1n2Cc1cc(F)ccc1F`, the pIC50 in test [1], in test [3], in test [4] and in test [6] was less than 4.30 in each case.
In the case of `COC(=O)c1cnc2c(c1)c1ccccc1n2Cc1c(F)cccc1F`, the pIC50 in test [1], in test [2], in test [3], in test [4], in test [5] and in test [6] was less than 4.30 in each case.
`OCc1cnc2c(c1)c1ccccc1n2Cc1ccc(Cl)c(Cl)c1` had a pIC50 in test [2] of less than 4.30.
`COC(=O)c1cnc2c(c1)c1ccccc1n2Cc1ccc(Cl)cc1`: the pIC50 in test [1], in test [2], in test [3], in test [4], in test [5] and in test [6] was less than 4.30 in each case.
For the compound `OCc1cnc2c(c1)c1ccccc1n2Cc1ccccc1Cl`, the pIC50 in test [3] was less than 4.30.
Consider `COC(=O)c1cnc2c(c1)c1ccccc1n2Cc1ccc(Cl)c(Cl)c1`, for which the pIC50 in test [1], in test [2], in test [3] and in test [6] was less than 4.30 in each case.
For the compound `COC(=O)c1cnc2c(c1)c1ccccc1n2Cc1c(Cl)cccc1Cl`, the pIC50 in test [1], in test [2], in test [3], in test [4], in test [5] and in test [6] was less than 4.30 each time.
Take `OCc1cnc2c(c1)c1ccccc1n2Cc1ccccc1`: in test [6], the pIC50 was less than 4.30.
Turning to `COC(=O)c1cnc2c(c1)c1ccccc1n2Cc1ccccc1Cl`, the pIC50 in test [1], in test [2], in test [3], in test [4] and in test [6] was less than 4.30 throughout.
For the compound `COC(=O)c1cnc2c(c1)c1ccccc1n2Cc1ccoc1`, the pIC50 in test [1], in test [2], in test [3], in test [4], in test [5] and in test [6] was less than 4.30 each time.
In the case of `OCc1cnc2[nH]c3ccccc3c2c1`, the pIC50 was less than 4.30 in test [2] and 4.30 in test [5].
With `COC(=O)c1cnc2c(c1)c1ccccc1n2Cc1cc(OC)cc(OC)c1`, the pIC50 in test [6] was less than 4.30.
`COc1cccc(Cn2c3ccccc3c3cc(CO)cnc32)c1`: the pIC50 in test [2] is less than 4.30.
As for `COC(=O)c1cnc2[nH]c3ccccc3c2c1`, the pIC50 in test [1], in test [2] and in test [3] was less than 4.30 each time.
Take `COC(=O)c1cnc2c(c1)c1ccccc1n2Cc1ccsc1`: the pIC50 in test [1], in test [2], in test [3], in test [4], in test [5] and in test [6] was less than 4.30 each time.
Take `OCc1cnc2c(c1)c1ccccc1n2Cc1ccc(Cl)cc1Cl`: in test [6], the pIC50 is less than 4.30.
Take `COC(=O)c1cnc2c(c1)c1ccccc1n2Cc1ccc(F)c(F)c1`: the pIC50 in test [1], in test [3], in test [4] and in test [6] was less than 4.30 in each case.
Turning to `OCc1cnc2c(c1)c1ccccc1n2Cc1ccoc1`, the pIC50 in test [1], in test [2], in test [3], in test [4], in test [5] and in test [6] was less than 4.30 in each case.
Regarding `COC(=O)c1cnc2c(c1)c1ccccc1n2Cc1ccc(Cl)cc1Cl`, the pIC50 in test [1], in test [2], in test [3], in test [4], in test [5] and in test [6] was less than 4.30 in each case.
Consider `OCc1cnc2c(c1)c1ccccc1n2Cc1ccc(F)c(F)c1`, for which the pIC50 in test [1], in test [4] and in test [6] was less than 4.30 in each case.
`OCc1cnc2c(c1)c1ccccc1n2Cc1cccs1`: the pIC50 in test [1], in test [2], in test [3], in test [4], in test [5] and in test [6] was less than 4.30 throughout.
For the compound `COC(=O)c1cnc2c(c1)c1ccccc1n2Cc1cc(OC)c(OC)c(OC)c1`, the pIC50 in test [2] and in test [6] was less than 4.30 throughout.
Consider `OCc1cnc2c(c1)c1ccccc1n2Cc1c(Cl)cccc1Cl`, for which the pIC50 in test [3], in test [5] and in test [6] was less than 4.30 in each case.
Turning to `COC(=O)c1cnc2c(c1)c1ccccc1n2Cc1cc(F)cc(F)c1`, the pIC50 in test [1], in test [2], in test [3], in test [4], in test [5] and in test [6] was less than 4.30 each time.
For `OCc1cnc2c(c1)c1ccccc1n2Cc1ccc(F)cc1`, the negative-log IC50 (pIC50) in test [1], in test [2], in test [3], in test [4] and in test [6] was less than 4.30 each time.
Take `OCc1cnc2c(c1)c1ccccc1n2Cc1ccc(Cl)cc1`: the pIC50 in test [2], in test [3], in test [4] and in test [6] was less than 4.30 in each case.
As for `COc1ccc(Cn2c3ccccc3c3cc(CO)cnc32)cc1`, the pIC50 in test [1], in test [2] and in test [4] was less than 4.30 in each case.
Compound `COc1cc(Cn2c3ccccc3c3cc(CO)cnc32)cc(OC)c1` showed a pIC50 in test [2] of less than 4.30.
For the compound `COC(=O)c1cnc2c(c1)c1ccccc1n2Cc1cccc(Cl)c1`, the pIC50 in test [1], in test [2], in test [3] and in test [6] was less than 4.30 throughout.
As for `COC(=O)c1cnc2c(c1)c1ccccc1n2Cc1ccc(F)cc1`, the pIC50 in test [1], in test [2], in test [3], in test [4], in test [5] and in test [6] was less than 4.30 in each case.
In the case of `OCc1cnc2c(c1)c1ccccc1n2Cc1ccc(F)cc1F`, the pIC50 in test [1], in test [2], in test [4] and in test [6] was less than 4.30 each time.
